Measured values published in patent publication US7834025B2, “Substituted indolyl-alkyl-amino-derivatives as inhibitors of histone deacetylase” (Janssen Pharmaceutica N.V., priority 2006, dated 2010).
≈ marks a conversion by molar mass, not a printed value. Where two headings read alike, the source gives them in different places.

Tests used:
[1] = molecular target: histone deacetylase (HeLa nuclear extracts); test: In vitro assay for inhibition of histone deacetylase (Fluor de Lys, HeLa nuclear extracts); format: biochemical; conditions: HeLa nuclear extracts 60 μg/ml, 75 μM Fluor de Lys substrate
Excerpt: The in vitro assay for inhibition of histone deacetylase (see example C.1) measures the inhibition of HDAC enzymatic activity obtained with the compounds of formula (I).
The HDAC Fluorescent Activity Assay/Drug Discovery Kit of Biomol (cat. No: AK-500-0001) was used. The HDAC Fluorescent Activity Assay is based on the Fluor de Lys (Fluorogenic Histone deAcetylase Lysyl) substrate and developer combination. The Fluor de Lys substrate, comprises an acetylated lysine side chain. Deacetylation of the substrate sensitizes the substrate so that, in the second step, treatment with the Fluor de Lys developer produces a fluorophore.
HeLa nuclear extracts (supplier: Biomol) were incubated at 60 μg/ml with 75 μM of substrate. The Fluor de Lys substrate was added in a buffer containing 25 mM Tris, 137 mM NaCl, 2.7 mM KCl and 1 mM MgCl2.6H2O at pH 7.4. After 30 min, 1 volume of the developer was added. The fluorophore was excited with 355 nm light and the emitted light (450 nm) was be detected on a fluorometric plate reader. For each experiment, controls (containing HeLa nuclear extract and buffer), a blank incubation (containing buffer but no HeLa nuclear extract) and samples (containing compound dissolved in DMSO and further diluted in buffer and HeLa nuclear extract) were run in parallel. In first instance, compounds were tested at a concentration of 10^−5M. […] All sample were tested 4 times. In each test the blank value was subtracted from both the control and the sample values. The control sample represented 100% of substrate deacylation. For each sample the fluorescence was expressed as a percentage of the mean value of the controls. […] Herein the effects of test compounds are expressed as pIC50 (the negative log value of the IC50-value) (see Table F-2).

[2] = test system: human A2780 ovarian carcinoma cells; test: Antiproliferative activity on A2780 cells (MTT); format: cell-based; conditions: 96 h, four days of incubation, read-out: Cellular activity pIC50 C.2. (converted)
Procedure: Cellular activity of the compounds of formula (I) was determined on A2780 tumour cells using a […] assay for cell toxicity or survival (Mosmann Tim, Journal of Immunological Methods 65: 55-63, 1983)(see example C.2).
All compounds tested were dissolved in DMSO and further dilutions were made in culture medium. Final DMSO concentrations never exceeded 0.1% (v/v) in cell proliferation assays. Controls contained A2780 cells and DMSO without compound and blanks contained DMSO but no cells. MTT was dissolved at 5 mg/ml in PBS. A glycine buffer comprised of 0.1 M glycine and 0.1 M NaCl buffered to pH 10.5 with NaOH (1 N) was prepared (all reagents were from Merck).
The human A2780 ovarian carcinoma cells (a kind gift from Dr. T. C. Hamilton [Fox Chase Cancer Centre, Pa., USA]) were cultured in RPMI 1640 medium supplemented with 2 mM L-glutamine, 50 μg/ml gentamicin and 10% fetal calf serum. Cells were routinely kept as monolayer cultures at 37° C. in a humidified 5% CO2 atmosphere. Cells were passaged once a week using a trypsin/EDTA solution at a split ratio of 1:40. All media and supplements were obtained from Life Technologies. Cells were free of mycoplasma contamination as determined using the Gen-Probe Mycoplasma Tissue Culture kit (supplier: BioMérieux).
Cells were seeded in NUNC™ 96-well culture plates (Supplier: Life Technologies) and allowed to adhere to the plastic overnight. Densities used for plating were 1500 cells per well in a total volume of 200 μl medium. After cell adhesion to the plates, medium was changed and drugs and/or solvents were added to a final volume of 200 μl. Following four days of incubation, medium was replaced by 200 μl fresh medium and cell density and viability was assessed using an MTT-based assay. […] For each sample, the mean value for cell growth (in absorbance units) was expressed as a percentage of the mean value for cell growth of the control. […] Herein the effects of test compounds are expressed as pIC50 (the negative log value of the IC50-value)(see Table F-2).

[3] = Kinetic solubility in aqueous media (C.3.a); format: physicochemical; conditions: kinetic from dmso stock, aqueous buffer pH 7.4
Procedure: (§1) The solubility of a compound measures the ability of a compound to stay in solution. In the first method, the ability of a compound to stay in aqueous solution upon dilution (see example C.3.a) is measured. DMSO-stock solutions are diluted with a single aqueous buffer solvent in different consecutive steps. Mixtures are then scanned in the BD Gentest Solubility Scanner for the occurrence of precipitation. In the second method the solubility of a compound at different pH's can be measured with the use of a chemiluminescent nitrogen detector (see example C.3.b).
DMSO-stock solutions from 5000-9.8 μM (½ dilutions) are made in DMSO in a 96 well stock solution plate (200 μl per well). After each dilution the samples are mixed. Aliquots of these DMSO solutions (2 μl) are then transferred into 2 other 96 well buffer plates, containing 200 μl per well aqueous buffer. Each of the buffer plates contains either aqueous buffer pH 7.4 or aqueous buffer pH 4.0. After the last dilution the buffer plates are mixed and the samples are stabilized at room temperature for ½ hour. Dilution is done in duplicate for each compound to exclude occasional errors. Mixtures are then scanned in the BD Gentest Solubility Scanner for the occurrence of precipitation. Based on the absence/presence of precipitate in the mixtures the kinetic solubility is calculated by interpolation. Ranking is performed into the 3 classes.

[4] = Metabolic stability in liver microsomes; conditions: reference compounds; 15 min incubation with microsomes, 5 μM
[5] = Solubility with chemiluminescent nitrogen detector (C.3.b); format: physicochemical; conditions: pH 2.3, aqueous buffer
Procedure: as §1
The solubility of a compound, at different pH's, can also be measured with the use of a chemiluminescent nitrogen detector (see Table F-2).

[6] = test system: p21 promoter reporter A2780 clone tumour in nude mice; test: p21 induction capacity, in vivo method (tumour fluorescence); conditions: s.c. A2780 reporter clone, 20-40 mpk orally or intravenously daily during 6 days
Procedure: The last method is an in vivo method wherein mice are used for screening the pharmaceutical activity of a compound. The above described stably transformed tumour cells can be administered to mice in an amount sufficient to effect production of a tumour. After the tumour cells had sufficient time to form a tumour, a potentially active compound can be administered to the animals and the effect of said compound on the tumour cells is evaluated by measuring the expression of the reporter gene. Incubation with pharmaceutical active compounds will result in an increase of reporter gene expression compared to the control levels (see example C.6.b.)
A selected clone was injected subcutaneous (10^7 cells/200 μl) into the flank of nude mice and a calliper measurable tumour was obtained after 12 days. From day 12 on, animals were dosed, orally or intraveinally, daily during 6 days with solvent and 20-40 mpk compound (4-10 animals each). Tumours were evaluated for fluorescence by the in-house developed Automated Whole Body Imaging System (Fluorescent stereomicroscope type Olympus® SZX12 equipped with a GFP filter and coupled to a CCD camera type JAI® CV-M90 controlled by a software package based on the IMAQ Vision Software from National Instruments®).

[7] = human, 15 min, 5 μM

Compound | Enzymatic activity pIC50 C.1. [1] | IC50 [2] [nM] | solubility at 0.5 h [3] [µM] | melting point [°C] | other results
CC(NCC1CCN(c2ncc(C(=O)NO)cn2)CC1)c1cn(C)c2ccccc12 (stereo not drawn) [Compound 1] | 9.0 | 31.6 | 7.8 (≈ 3.19 µg/mL) | 296 | 
Cn1cc(C2CCN(CC3CCN(c4ccc(C(=O)NO)cn4)CC3)C2)c2ccccc21 (stereo not drawn) [Compound 4] |  |  |  | 70 | 
CCCO [propanol] |  |  |  |  | % metabolism [4]: 25%
Cn1cc(C2CCCN(CC3CCN(c4ncc(C(=O)NO)cn4)CC3)C2)c2ccccc21 (stereo not drawn) [Compound 3] | 8.3 | 31.6 | 15.6 (≈ 7 µg/mL) | 224 | 
Cn1cc(C2CCN(CC3CCN(c4ncc(C(=O)NO)cn4)CC3)C2)c2ccccc21 (stereo not drawn) [Compound 2] | 8.9 | 50.1 | 9.4 (≈ 4.08 µg/mL) | 231 | solubility [5]: 1350 µg/mL (≈ 3.11 mM); Tumour fluorescence (reporter gene expression) versus control [6]: increased fluorescence as compared to control
Cn1cc(C2CCN(CC3CCN(c4ccc(C(=O)Nc5ccccc5N)cn4)CC3)C2)c2ccccc21 (stereo not drawn) [Compound 5] |  |  |  | 90 | 
COc1cc(N)c(Cl)cc1C(=O)NC1CCN(CCCOc2ccc(F)cc2)CC1OC (stereo not drawn) [Cisapride] |  |  |  |  | % metabolism [7]: 45%
